Here are results for 36 compounds from the Biogen ADME set (Fang et al. 2023).

For this series the following is noted: for aqueous solubility: pH 6.8.

In brackets after ≈: the same amount, converted by molar mass. Some results are limits rather than exact numbers.

`COc1ccc2c(c1)CCCN(C(=O)NCCc1ccccn1)C2`: the intrinsic clearance, human liver microsomes came to 174 mL/min/kg and the intrinsic clearance, rat liver microsomes is 1400 mL/min/kg.

Turning to `Cc1c(C(=O)NCc2cnc(N(C)C)n2C)sc2ccccc12`, the MDR1-MDCK efflux ratio amounted to 5; the intrinsic clearance, human liver microsomes is 17.9 mL/min/kg; the intrinsic clearance, rat liver microsomes stood at 318 mL/min/kg; the aqueous solubility worked out at 51 µg/mL (≈ 155 µM).

In the case of `CNC(=O)[C@H]1O[C@@H](n2cnc3c(NCc4cccc(I)c4)ncnc32)[C@H](O)[C@@H]1O`, the intrinsic clearance, human liver microsomes amounted to 195 mL/min/kg and the intrinsic clearance, rat liver microsomes came to 3690 mL/min/kg.

For the compound `Cc1cc(Nc2ccc(F)cn2)cc(C2CCN(C(=O)COc3ccccc3F)C2)n1` (configuration not stated), the MDR1-MDCK efflux ratio stood at 9.5; the intrinsic clearance, human liver microsomes was found to be 115 mL/min/kg; the intrinsic clearance, rat liver microsomes turned out to be 507 mL/min/kg; the aqueous solubility turned out to be 55.6 µg/mL (≈ 131 µM).

As to `COc1cccc(-c2nc(C(=O)O)cs2)c1OC`, the MDR1-MDCK efflux ratio worked out at 0.916; the intrinsic clearance, human liver microsomes was not above 4.74 mL/min/kg; the intrinsic clearance, rat liver microsomes was not above 10.7 mL/min/kg; the aqueous solubility was 37.7 µg/mL (≈ 142 µM).

Turning to `Cc1oc2ncnc(NCc3cc(F)cc4c3OCOC4)c2c1C`, the MDR1-MDCK efflux ratio was found to be 0.553; the intrinsic clearance, human liver microsomes is 127 mL/min/kg; the intrinsic clearance, rat liver microsomes is 2040 mL/min/kg.

Regarding `C[C@@H]1NC(=O)N(CCC2Cc3ccccc3C2)C1=O`, the MDR1-MDCK efflux ratio came out at 0.771; the intrinsic clearance, human liver microsomes is not above 4.74 mL/min/kg; the intrinsic clearance, rat liver microsomes came to 193 mL/min/kg.

Take `Cc1ccc(=O)n(CC2(O)CCN(Cc3cccs3)CC2)n1`: the MDR1-MDCK efflux ratio was determined as 4.22; the intrinsic clearance, human liver microsomes is not above 4.74 mL/min/kg; the intrinsic clearance, rat liver microsomes turned out to be 161 mL/min/kg.

Take `O=C(Nn1cnc2ccccc21)c1c2c(nc3ccccc13)CCC2`: the MDR1-MDCK efflux ratio worked out at 43.2; the intrinsic clearance, human liver microsomes was not above 4.74 mL/min/kg; the intrinsic clearance, rat liver microsomes was not above 10.7 mL/min/kg; the aqueous solubility was found to be 56.7 µg/mL (≈ 173 µM).

On to `Cc1ccc2oc(C(=O)N3CC[C@H](O)[C@@H](N4CCOCC4)CC3)cc2c1`, for which the MDR1-MDCK efflux ratio was determined as 2.46; the intrinsic clearance, human liver microsomes was 16.6 mL/min/kg; the intrinsic clearance, rat liver microsomes was found to be 1260 mL/min/kg.

Regarding `Cc1cc(NC(=O)c2ccc(NC3CC3)nc2)[nH]n1`, the intrinsic clearance, human liver microsomes came to 6.42 mL/min/kg and the intrinsic clearance, rat liver microsomes was determined as 15.5 mL/min/kg.

Regarding `O=C(Nc1cncc(Cl)c1Cl)c1cccc(-n2cccn2)n1`, the MDR1-MDCK efflux ratio amounted to 0.09; the intrinsic clearance, human liver microsomes came out at 99 mL/min/kg; the intrinsic clearance, rat liver microsomes was found to be 149 mL/min/kg.

Regarding `CN(Cc1cccc(C#N)c1)Cc1cnn(C)c1`, the MDR1-MDCK efflux ratio came to 0.578; the intrinsic clearance, human liver microsomes is not above 4.74 mL/min/kg; the intrinsic clearance, rat liver microsomes is not above 10.7 mL/min/kg; the aqueous solubility was found to be 32.1 µg/mL (≈ 134 µM).

On to `Cc1cc(-c2nc(N(C)C)no2)cc(O)n1`, for which the MDR1-MDCK efflux ratio worked out at 0.726; the intrinsic clearance, human liver microsomes was not above 4.74 mL/min/kg; the intrinsic clearance, rat liver microsomes came out at 31.7 mL/min/kg.

Turning to `CN(CC1(O)CCCC1)c1ncccn1`, the MDR1-MDCK efflux ratio amounted to 1.27; the intrinsic clearance, human liver microsomes is not above 4.74 mL/min/kg; the intrinsic clearance, rat liver microsomes is 132 mL/min/kg; the aqueous solubility is 32.6 µg/mL (≈ 157 µM).

Regarding `Cc1cc(C(=O)Nc2cccc(-c3cnco3)c2)c2c(C)nn(C)c2n1`, the MDR1-MDCK efflux ratio amounted to 1.08; the intrinsic clearance, human liver microsomes was determined as 29 mL/min/kg; the intrinsic clearance, rat liver microsomes came to 75.1 mL/min/kg; the aqueous solubility stood at 8.73 µg/mL (≈ 25.1 µM).

For the compound `c1ccc(-c2noc(C3CCNCC3)n2)nc1`, the intrinsic clearance, human liver microsomes was not above 4.74 mL/min/kg and the intrinsic clearance, rat liver microsomes is not above 10.7 mL/min/kg.

For the compound `Cc1cccc(NCCc2cn3c(n2)CCCC3)n1`, the MDR1-MDCK efflux ratio worked out at 3.58; the intrinsic clearance, human liver microsomes is not above 4.74 mL/min/kg; the intrinsic clearance, rat liver microsomes turned out to be 971 mL/min/kg; the aqueous solubility came to 31 µg/mL (≈ 121 µM).

Regarding `Cc1cccc(NC(=O)CSc2nncs2)c1`, the MDR1-MDCK efflux ratio is 0.51; the intrinsic clearance, human liver microsomes came out at 22.6 mL/min/kg; the intrinsic clearance, rat liver microsomes was found to be 278 mL/min/kg.

With `CCc1nnsc1C(=O)Nc1cccc(-c2nnc3n2CCCCC3)c1`, the MDR1-MDCK efflux ratio turned out to be 47.2; the intrinsic clearance, human liver microsomes is 15 mL/min/kg; the intrinsic clearance, rat liver microsomes stood at 142 mL/min/kg; the aqueous solubility stood at 32.2 µg/mL (≈ 87.5 µM).

In turn, `CCCN1CCCN(C(=O)c2nc3ccccc3[nH]2)CC1` came in with an intrinsic clearance, human liver microsomes of 19.2 mL/min/kg; an intrinsic clearance, rat liver microsomes of 169 mL/min/kg; an aqueous solubility of 49.4 µg/mL (≈ 172 µM).

`O=C(c1nccc2ccccc12)N1CCC(COc2ccccn2)CC1` registered an intrinsic clearance, human liver microsomes of 42.1 mL/min/kg and an intrinsic clearance, rat liver microsomes of 5410 mL/min/kg.

Compound `Fc1cccc(Oc2nnnn2-c2ccccc2)c1` had an aqueous solubility of 13.1 µg/mL (≈ 51 µM).

As to `Fc1ccc(CN2CCCN(c3ccc4nnnn4n3)CC2)cc1`, the MDR1-MDCK efflux ratio was found to be 0.606; the intrinsic clearance, human liver microsomes turned out to be 31.9 mL/min/kg; the intrinsic clearance, rat liver microsomes was 620 mL/min/kg.

As for `Cc1ccc(-n2cc(C)cn2)c(NC(=O)CN(C)C)c1`, the MDR1-MDCK efflux ratio is 0.559; the intrinsic clearance, human liver microsomes was determined as 120 mL/min/kg; the intrinsic clearance, rat liver microsomes was found to be 436 mL/min/kg.

`Cc1nc(-c2ccccc2)nc(O)c1C`: the MDR1-MDCK efflux ratio was found to be 0.634; the intrinsic clearance, human liver microsomes is 19.3 mL/min/kg; the intrinsic clearance, rat liver microsomes was 54.3 mL/min/kg.

On to `CN1CCC(O)(CNS(=O)(=O)CC2CCCCC2)CC1`, for which the MDR1-MDCK efflux ratio is 2.92; the intrinsic clearance, human liver microsomes is not above 4.74 mL/min/kg; the intrinsic clearance, rat liver microsomes is 387 mL/min/kg.

Take `O=C1CCC(=O)N1Cc1nc(Cc2ccccc2)cs1`: the intrinsic clearance, human liver microsomes was not above 4.74 mL/min/kg and the intrinsic clearance, rat liver microsomes was 145 mL/min/kg.

In the case of `COc1cc(C)cc(OC)c1-c1ccc(OCC(N)=O)cc1`, the intrinsic clearance, human liver microsomes is not above 4.74 mL/min/kg and the intrinsic clearance, rat liver microsomes came to 253 mL/min/kg.

Regarding `Cc1ccc(-c2csc(CC(N)=O)n2)cc1C`, the MDR1-MDCK efflux ratio stood at 0.752 and the aqueous solubility stood at 35.9 µg/mL (≈ 146 µM).

Take `Fc1cc(-c2noc(C3CCN(C4CC4)CC3)n2)cc(F)c1F`: the intrinsic clearance, human liver microsomes was found to be 75 mL/min/kg and the intrinsic clearance, rat liver microsomes is 591 mL/min/kg.

On to `C=CCN(Cc1cccnc1)c1nc(C)nc2sccc12`, for which the MDR1-MDCK efflux ratio was determined as 0.798; the intrinsic clearance, human liver microsomes was found to be 188 mL/min/kg; the intrinsic clearance, rat liver microsomes stood at 1480 mL/min/kg; the aqueous solubility is 45.5 µg/mL (≈ 154 µM).

In the case of `CC#CCCNC(=O)c1cccnc1C`, the MDR1-MDCK efflux ratio came to 0.755; the intrinsic clearance, human liver microsomes was not above 4.74 mL/min/kg; the intrinsic clearance, rat liver microsomes is 21.5 mL/min/kg.

`Cc1nc(C)c(C(=O)NCc2ncoc2C)s1` gave an intrinsic clearance, human liver microsomes not above 4.74 mL/min/kg and an intrinsic clearance, rat liver microsomes not above 10.7 mL/min/kg.

Turning to `CCN(c1cc(-c2ccc(CN3CCOCC3)cc2)cc(C(=O)NCc2c(C)cc(C)nc2O)c1C)C1CCOCC1`, the MDR1-MDCK efflux ratio worked out at 60.3; the intrinsic clearance, human liver microsomes amounted to 131 mL/min/kg; the intrinsic clearance, rat liver microsomes came out at 525 mL/min/kg; the aqueous solubility came to 49.2 µg/mL (≈ 85.9 µM).

`Cc1ccc(-c2nnc(SCCn3cccn3)[nH]2)cc1` displayed an intrinsic clearance, human liver microsomes of 96.9 mL/min/kg; an intrinsic clearance, rat liver microsomes of 302 mL/min/kg; an aqueous solubility of 21.8 µg/mL (≈ 76.4 µM).
